Test results as given in patent US20030040476A1, “EAG gene” (priority 1999, published 2003).

Assays:
hEAG2 channel [1] = assay: Modulation of hEAG2 current during progesterone-induced G2-M progression in Xenopus oocytes; format: cell-based, human; settings: oocytes treated with 20 μg/ml progesterone while recording; homogenous at all voltages tested
Description: (§1) For Xenopus oocyte expression, the cDNA was cloned into a suitable vector containing the translation initiation sequences and the polyadenylation sequence of Xenopus b-globin. This optimizes the expression in oocytes. The template was prepared by linearization of the construct, and RNA was synthesized using the T7 promotor. The synthetic RNA was injected into stage V-VI oocytes using standard techniques (approximately 50 ng/oocyte). The currents expressed were then measured 48-96 hours after the injection using two-electrode voltage clamp.
The modulation of hEAG2 during cell cycle was determined using the natural cell cycle arrest of oocytes in the G2 stage of the first meiotic division. The progression of the cycle through the G2-M boundary is triggered by progesterone. We have treated the oocytes with 20 μg/ml progesterone while recording the hEAG2 currents. […] Importantly, the reduction was homogenous at all voltages tested (as opposite to what happens with EAG1).

hEAG2 channel [2] = target: T1, hEAG2 channel (Homo sapiens, UniProt Q8NCM2); assay: Magnesium dependence of hEAG2 activation, two-electrode voltage clamp in Xenopus oocytes; format: cell-based
T1 construct: expressed in transfected cells; host or cells: Xenopus oocytes (stage V-VI), injected with synthetic RNA
T1 sequence (Q8NCM2 1-988): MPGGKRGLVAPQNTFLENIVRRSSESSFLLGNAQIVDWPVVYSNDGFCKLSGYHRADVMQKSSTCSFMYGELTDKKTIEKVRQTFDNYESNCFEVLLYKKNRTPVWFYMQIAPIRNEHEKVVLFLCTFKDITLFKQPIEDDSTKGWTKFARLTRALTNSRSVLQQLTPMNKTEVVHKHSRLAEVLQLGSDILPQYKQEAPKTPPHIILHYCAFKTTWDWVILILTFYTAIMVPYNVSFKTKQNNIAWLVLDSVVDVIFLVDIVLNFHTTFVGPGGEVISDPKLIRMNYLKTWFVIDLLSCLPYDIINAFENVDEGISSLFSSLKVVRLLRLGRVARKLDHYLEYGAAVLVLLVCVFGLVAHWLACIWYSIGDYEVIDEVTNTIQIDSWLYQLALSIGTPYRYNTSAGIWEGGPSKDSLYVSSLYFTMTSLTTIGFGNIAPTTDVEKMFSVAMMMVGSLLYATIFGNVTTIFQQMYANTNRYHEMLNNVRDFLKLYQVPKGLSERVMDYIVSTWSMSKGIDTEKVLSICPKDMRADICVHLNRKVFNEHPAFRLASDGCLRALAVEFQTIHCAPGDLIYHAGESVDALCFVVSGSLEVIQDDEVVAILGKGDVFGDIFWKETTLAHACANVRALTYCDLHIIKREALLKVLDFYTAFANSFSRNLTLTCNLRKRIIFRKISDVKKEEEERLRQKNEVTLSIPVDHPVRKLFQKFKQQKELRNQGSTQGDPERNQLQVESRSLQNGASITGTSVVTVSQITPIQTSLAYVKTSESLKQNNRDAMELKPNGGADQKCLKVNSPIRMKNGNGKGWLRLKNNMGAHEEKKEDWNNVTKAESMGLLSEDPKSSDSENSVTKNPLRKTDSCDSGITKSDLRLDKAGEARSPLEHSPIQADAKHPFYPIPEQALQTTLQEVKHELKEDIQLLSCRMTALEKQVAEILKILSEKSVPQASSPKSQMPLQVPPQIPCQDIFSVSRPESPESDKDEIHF
Description: as §1
The depencence on the holding potential of the time constant of activation was determined using a conditioning potential between −150 and −60 mV during 5 s prior to the test pulse. The time required to achieve 80% of the maximal amplitude in the test pulse was then plotted against the conditioned potential, and fitted with a Boltzmann distribution. Extracellular magnesium is known to slow down the activation of EAG1. We determined the magnesium dependence of hEAG2 using the protocol descibed above in the presence of different external magnesium concentrations. The value of Vhalf obtained from the fit was plotted against the magnesium concentration, giving a semimaximal effect of extracellular magnesium at 80 μM (FIG. 7).

SMILES	effect on hEAG2 current amplitude (hEAG2 channel [1])	EC50 (hEAG2 channel [2]; hEAG2 in Xenopus oocytes, conditioning potential -150 to -60 mV for 5 s before test pulse, extracellular magnesium, read-out: apparent EC50 for the effect of magnesium (Vhalf of activation time versus Mg^2+ concentration)) [µM]	slowing of activation in 2 mM Mg^2+ versus 200 μM Mg^2+ (hEAG2 channel [2]; prepulse potential -60 mV, 2 mM versus 200 μM Mg^2+)
CC(=O)[C@H]1CC[C@H]2[C@@H]3CCC4=CC(=O)CC[C@]4(C)[C@H]3CC[C@]12C [progesterone]	reduction of the current with time		
[Mg+2] [magnesium]		80	three times slower
